Test system: T cell activation associated with MHC/antigen/TCR complexes
Experiment: In vitro T cell activation assays
Type: cell-based

With `O=C(CNC(=O)N1CCCC1)NNC(=O)Nc1ccc2ccccc2c1` [Formula IV] the “activity in in vitro T cell activation assays” value was “showed activity”.

Reference: patent US8785419B2, “Cavity induced allosteric modification of intermolecular interactions and methods of identifying compounds that effect the same” (The Trustees Of The University Of Pennsylvania, priority 1998, dated 2014)
